CC(C)COc1ccc(B(O)O)cc1
Conditions | solubility (mole fraction)
in 3-pentanone, 294.65 K | 0.114
in 3-pentanone, 298.65 K | 0.128
in 3-pentanone, 303.75 K | 0.146
in 3-pentanone, 307.25 K | 0.172
in 3-pentanone, 309.35 K | 0.187
in 3-pentanone, 313.65 K | 0.205
in 3-pentanone, 317.65 K | 0.232
in 3-pentanone, 325.55 K | 0.265
in 3-pentanone, 331.35 K | 0.31
in 3-pentanone, 334.65 K | 0.335
in 3-pentanone, 339.65 K | 0.367
in 3-pentanone, 349.65 K | 0.411
in acetone, 294.45 K | 0.127
in acetone, 296.85 K | 0.132
in acetone, 299.75 K | 0.139
in acetone, 304.75 K | 0.149
in acetone, 309.45 K | 0.16
in acetone, 312.25 K | 0.171
in acetone, 318.75 K | 0.19
in acetone, 322.55 K | 0.204
in acetone, 325.35 K | 0.218
in chloroform, 296.25 K | 0.0212
in chloroform, 299.95 K | 0.0253
in chloroform, 303.65 K | 0.0304
in chloroform, 308.65 K | 0.0367
in chloroform, 309.65 K | 0.0415
in chloroform, 310.85 K | 0.0471
in chloroform, 312.65 K | 0.0555
in chloroform, 316.35 K | 0.0668
in chloroform, 319.65 K | 0.0785
in chloroform, 322.35 K | 0.0936
in chloroform, 328.75 K | 0.115
in chloroform, 334.25 K | 0.146
in chloroform, 338.65 K | 0.202
in chloroform, 338.75 K | 0.183
in chloroform, 343.15 K | 0.254
in chloroform, 346.65 K | 0.279
in chloroform, 352.65 K | 0.324
in chloroform, 353.85 K | 0.335
in dipropyl ether, 296.65 K | 0.0352
in dipropyl ether, 303.15 K | 0.0416
in dipropyl ether, 308.15 K | 0.0497
in dipropyl ether, 308.45 K | 0.0587
in dipropyl ether, 312.65 K | 0.0705
in dipropyl ether, 315.65 K | 0.082
in dipropyl ether, 320.15 K | 0.0995
in dipropyl ether, 325.55 K | 0.128
in dipropyl ether, 330.05 K | 0.165
in dipropyl ether, 333.15 K | 0.196
in dipropyl ether, 336.65 K | 0.229
in dipropyl ether, 339.45 K | 0.261
in dipropyl ether, 344.15 K | 0.314
in dipropyl ether, 348.65 K | 0.345
in methylcyclohexane, 318.55 K | 0.0096
in methylcyclohexane, 323.65 K | 0.0191
in methylcyclohexane, 328.45 K | 0.03
in methylcyclohexane, 334.75 K | 0.0514
in methylcyclohexane, 343.55 K | 0.118
in methylcyclohexane, 344.65 K | 0.204
in methylcyclohexane, 345.55 K | 0.266
in methylcyclohexane, 350.95 K | 0.322

CC(C)COc1cccc(B(O)O)c1
Conditions | solubility (mole fraction)
in 3-pentanone, 303.65 K | 0.191
in 3-pentanone, 307.15 K | 0.204
in 3-pentanone, 314.15 K | 0.233
in 3-pentanone, 318.75 K | 0.258
in 3-pentanone, 335.65 K | 0.289
in 3-pentanone, 339.15 K | 0.329
in 3-pentanone, 343.15 K | 0.354
in 3-pentanone, 348.15 K | 0.396
in 3-pentanone, 351.15 K | 0.443
in 3-pentanone, 353.65 K | 0.488
in chloroform, 297.15 K | 0.018
in chloroform, 302.65 K | 0.0229
in chloroform, 306.65 K | 0.0278
in chloroform, 310.25 K | 0.0327
in chloroform, 313.95 K | 0.0408
in chloroform, 318.35 K | 0.0507
in chloroform, 323.05 K | 0.067
in chloroform, 328.55 K | 0.0899
in chloroform, 331.75 K | 0.131
in chloroform, 333.25 K | 0.19
in dipropyl ether, 298.65 K | 0.103
in dipropyl ether, 302.95 K | 0.116
in dipropyl ether, 305.15 K | 0.126
in dipropyl ether, 308.45 K | 0.137
in dipropyl ether, 312.15 K | 0.155
in dipropyl ether, 314.65 K | 0.172
in dipropyl ether, 319.75 K | 0.198
in dipropyl ether, 323.45 K | 0.232
in dipropyl ether, 329.95 K | 0.275
in dipropyl ether, 333.95 K | 0.34
in methylcyclohexane, 305.95 K | 0.0033
in methylcyclohexane, 308.45 K | 0.0049
in methylcyclohexane, 309.95 K | 0.0065
in methylcyclohexane, 315.75 K | 0.0082
in methylcyclohexane, 318.65 K | 0.0147
in methylcyclohexane, 322.65 K | 0.0343
in methylcyclohexane, 325.25 K | 0.0556
in methylcyclohexane, 327.05 K | 0.0817
in methylcyclohexane, 329.65 K | 0.132
in methylcyclohexane, 331.75 K | 0.154

CC(C)COc1ccccc1B(O)O
Conditions | solubility (mole fraction)
in 3-pentanone, 295.65 K | 0.301
in 3-pentanone, 296.55 K | 0.288
in 3-pentanone, 297.65 K | 0.304
in 3-pentanone, 298.55 K | 0.324
in 3-pentanone, 300.65 K | 0.306
in 3-pentanone, 300.85 K | 0.322
in 3-pentanone, 302.55 K | 0.322
in 3-pentanone, 303.05 K | 0.338
in 3-pentanone, 305.35 K | 0.356
in 3-pentanone, 306.05 K | 0.342
in 3-pentanone, 308.35 K | 0.362
in 3-pentanone, 309.05 K | 0.378
in 3-pentanone, 312.05 K | 0.376
in 3-pentanone, 312.25 K | 0.396
in 3-pentanone, 313.85 K | 0.426
in 3-pentanone, 318.15 K | 0.407
in 3-pentanone, 318.85 K | 0.444
in 3-pentanone, 319.15 K | 0.478
in 3-pentanone, 319.55 K | 0.455
in 3-pentanone, 322.55 K | 0.482
in 3-pentanone, 324.85 K | 0.503
in 3-pentanone, 325.55 K | 0.526
in 3-pentanone, 328.85 K | 0.547
in 3-pentanone, 331.25 K | 0.609
in 3-pentanone, 337.25 K | 0.67
in 3-pentanone, 345.35 K | 0.766
in acetone, 293.65 K | 0.281
in acetone, 300.35 K | 0.314
in acetone, 303.65 K | 0.339
in acetone, 309.35 K | 0.372
in acetone, 315.65 K | 0.411
in acetone, 320.75 K | 0.467
in acetone, 327.35 K | 0.533
in acetone, 333.95 K | 0.611
in acetone, 337.75 K | 0.639
in acetone, 341.35 K | 0.695
in acetone, 344.45 K | 0.737
in acetone, 347.75 K | 0.8
in acetone, 350.55 K | 0.823
in acetone, 353.65 K | 0.872
in acetone, 355.75 K | 0.901
in chloroform, 295.15 K | 0.277
in chloroform, 299.15 K | 0.307
in chloroform, 304.45 K | 0.338
in chloroform, 308.15 K | 0.361
in chloroform, 313.15 K | 0.402
in chloroform, 317.65 K | 0.432
in chloroform, 320.65 K | 0.465
in chloroform, 325.75 K | 0.514
in chloroform, 328.65 K | 0.547
in chloroform, 335.05 K | 0.618
in chloroform, 336.15 K | 0.637
in chloroform, 341.15 K | 0.7
in chloroform, 344.75 K | 0.715
in chloroform, 348.45 K | 0.774
in chloroform, 350.25 K | 0.822
in chloroform, 352.15 K | 0.866
in chloroform, 355.15 K | 0.895
in dipropyl ether, 294.15 K | 0.157
in dipropyl ether, 300.35 K | 0.185
in dipropyl ether, 304.35 K | 0.209
in dipropyl ether, 311.05 K | 0.259
in dipropyl ether, 316.45 K | 0.305
in dipropyl ether, 320.15 K | 0.345
in dipropyl ether, 325.05 K | 0.405
in dipropyl ether, 329.15 K | 0.446
in dipropyl ether, 330.15 K | 0.463
in dipropyl ether, 332.15 K | 0.499
in dipropyl ether, 335.05 K | 0.532
in dipropyl ether, 338.65 K | 0.606
in dipropyl ether, 340.75 K | 0.641
in dipropyl ether, 345.65 K | 0.73
in dipropyl ether, 348.75 K | 0.764
in dipropyl ether, 351.65 K | 0.813
in dipropyl ether, 353.05 K | 0.857
in methylcyclohexane, 300.05 K | 0.0138
in methylcyclohexane, 305.15 K | 0.0169
in methylcyclohexane, 305.85 K | 0.0208
in methylcyclohexane, 309.15 K | 0.0262
in methylcyclohexane, 312.25 K | 0.0333
in methylcyclohexane, 315.55 K | 0.046
in methylcyclohexane, 318.15 K | 0.0589
in methylcyclohexane, 321.95 K | 0.0885
in methylcyclohexane, 323.35 K | 0.103
in methylcyclohexane, 324.35 K | 0.118
in methylcyclohexane, 325.95 K | 0.139
in methylcyclohexane, 327.05 K | 0.163
in methylcyclohexane, 329.05 K | 0.198
in methylcyclohexane, 331.25 K | 0.21
in methylcyclohexane, 331.85 K | 0.236
in methylcyclohexane, 332.95 K | 0.253
in methylcyclohexane, 334.95 K | 0.328
in methylcyclohexane, 336.05 K | 0.354
in methylcyclohexane, 336.95 K | 0.371
in methylcyclohexane, 340.05 K | 0.479
in methylcyclohexane, 343.75 K | 0.567
in methylcyclohexane, 344.45 K | 0.628
in methylcyclohexane, 349.15 K | 0.731
